According to patent US7705016B2, “Regulation of food intake by modulation of long-chain fatty acyl-CoA levels in the hypothalamus” (Albert Einstein College of Medicine of Yeshiva University, priority 2003, dated 2010):

Columns and labels:
CPT1L = target: T1, CPT1L (Rattus norvegicus, UniProt P32198); experiment: LC-CoA levels in hypothalamic nuclei by HPLC after ICV CPT1 inhibitor; type: in vivo; conditions: ICV administration
T1 construct: from tissue; host or cells: hypothalamus (arcuate nucleus) of male Sprague-Dawley rats, in vivo or ex vivo
T1 sequence (P32198 1-773): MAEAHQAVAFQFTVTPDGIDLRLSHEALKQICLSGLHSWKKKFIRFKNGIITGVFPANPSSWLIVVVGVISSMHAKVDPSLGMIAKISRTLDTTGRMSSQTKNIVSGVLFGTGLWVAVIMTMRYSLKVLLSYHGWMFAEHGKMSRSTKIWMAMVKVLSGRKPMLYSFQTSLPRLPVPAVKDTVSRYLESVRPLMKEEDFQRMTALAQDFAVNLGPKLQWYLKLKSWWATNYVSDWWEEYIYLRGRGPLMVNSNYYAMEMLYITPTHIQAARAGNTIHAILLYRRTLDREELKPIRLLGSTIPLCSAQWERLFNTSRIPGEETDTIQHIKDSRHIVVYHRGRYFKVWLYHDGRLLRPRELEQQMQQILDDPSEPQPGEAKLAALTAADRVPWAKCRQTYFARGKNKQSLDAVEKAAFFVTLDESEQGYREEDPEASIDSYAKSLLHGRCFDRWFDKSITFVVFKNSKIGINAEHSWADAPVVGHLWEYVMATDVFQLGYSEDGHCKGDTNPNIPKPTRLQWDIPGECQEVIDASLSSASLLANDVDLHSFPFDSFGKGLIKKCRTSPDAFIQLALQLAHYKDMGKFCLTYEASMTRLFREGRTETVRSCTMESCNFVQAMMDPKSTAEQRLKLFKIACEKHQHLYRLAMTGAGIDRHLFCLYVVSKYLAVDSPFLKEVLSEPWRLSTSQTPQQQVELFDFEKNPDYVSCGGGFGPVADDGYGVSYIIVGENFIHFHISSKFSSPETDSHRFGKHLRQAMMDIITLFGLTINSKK
Experimental: Surgical implantation of ICV cannulae was performed on day 1 (˜3 weeks prior to the in vivo study). Full recovery of body weight and food intake was achieved by day 7. Rats randomized for ribozyme treatment received an ICV injection of CPT1L-Ribo, CPT inhibitors or controls on day 17. The experimental group treated with TDGA received ICV injection of the inhibitor on day 21, 6 hr prior to the harvesting of brains. Panels B. and C. show quantitation of CPT1L (B) and CPT1M (C) mRNA by real-time PCR. RNA was purified from individual hypothalamic nuclei (PVN, LHA, and arcuate), which were obtained by micro punch technique 3 days after ICV injection of pTarget control (▪; N=4) or CPT1LRibo (□; N=5). Copy number of CPT1 mRNA is normalized to β-Actin copy number ×10^6. Panels D. and E. show CPT1 activity in individual arcuate nuclei (D) or whole hypothalamus (E). Brains were harvested 6 hr or 3 days […] the ICV injection of TDGA or CPT1L-Ribo respectively, and arcuate nuclei were punched out. CPT1 activity was measured in the particulate fraction of protein extracts from animals treated with ICV control injections (▪; N=6, receiving aCSF+2% DMSO or Control Ribo), TDGA ( ?; N=6), or CPTL-Ribo (□; N=5). Panels F and E establish that ICV administration of CPT1 inhibitors increases levels of LC-CoAs in arcuate. Levels of stearoyl-CoA (F) and oleyl-CoA (E) respectively were measured by HPLC in arcuate of rats injected ICV with control compound (▪; ST1340) or ST1326 (□).
ICV catheters were implanted in male Sprague-Dawley rats by stereotaxic surgery (Obici et al., 2002a; Obici et al., 2001; Liu et al., 1998). The biochemical or molecular analyses, the metabolic or the feeding experiments were performed ˜3 weeks later following complete recovery from the operation (FIG. 2a). CPT1L-Ribo was delivered ICV three days prior to experimental tests (FIG. 2a). […] Thus, we next measured CPT1 activity in ARC and in whole hypothalamus. […]

[1] = tested on: NPY, AgRP and POMC mRNA in ARC; experiment: Neuropeptide (NPY, AgRP, POMC) mRNA in ARC by real-time PCR; type: in vivo, rat; conditions: ICV
Excerpt: In order to begin investigating the mechanisms responsible for the anorectic properties of ARC CPT1 inhibition, we next analyzed the effect of CPT1L-Ribo on the gene expression of key ARC peptides. […] Overall, these anorectic effects support the notion that changes in the neuronal levels of LC-CoAs may directly control food intake via their action on discrete hypothalamic centers. Furthermore, increases in LC-CoAs levels in selective hypothalamic neurons are likely to account for the potent effects of oleic acid and of FAS inhibitors on food intake (Loftus et al., 2000; Obici et al., 2002a; Makimura et al., 2001; Shimokawa et al., 2002).
Total RNA was isolated with Trizol (Invitrogen, Carlsbad, Calif.) from individual hypothalamic nuclei (i.e. Arcuate, PVN etc.). Single strand cDNA synthesis and real-time PCR reactions were performed as previously described (Obici et al., 2002b). CPT1L and CPT1M mRNA specific primers contained the following sequences: CPT1L forward (F) 5′-[…]-3′ (SEQ ID NO:5) and reverse (R) primer, 5′-[…]-3′ (SEQ ID NO:6); CPT1M F 5′-[…]-3′ (SEQ ID NO:7) and R 5′-[…]-3′ (SEQ ID NO:8). Hypothalamic neuropeptides expression was performed by real-time PCR using the following primers: NPY-F 5′-[…]-3′ (SEQ ID NO:9), R 5′-[…]-3′ (SEQ ID NO:10), POMC-F 5′-CCAGGCAACGGAGATGAAC-3′ (SEQ ID NO:11), R 5′-TCACTGGCCCTTCTTGTGC-3′ (SEQ ID NO:12), AgRP-F 5′-[…]-3′ (SEQ ID NO:13), R 5′-[…]-3′ (SEQ ID NO:14), and β-actin F 5′-[…]-3′ (SEQ ID NO:15), R 5′-[…]-3′ (SEQ ID NO:16). Transcript levels are expressed as copy number of each gene normalized to copy number for β-actin. Copy number for each transcript was measured against a standard curve, which was obtained by PCR runs of each primer set with serial dilutions of a plasmid containing the target template sequences.

Oleyl-CoA levels in ARC (CPT1L) | stearoyl-CoA levels in ARC (CPT1L) | Other LC-CoAs (CPT1L; data not shown) | Molecule | expression of POMC in the ARC [1] | AgRP mRNA in the ARC ([1]; compared with Control-Ribo) | NPY mRNA in the ARC ([1]; compared with Control-Ribo)
marked increase | marked increase | significantly increased | CCCCCCCCCCCCCCNC(=O)N[C@H](CC(=O)[O-])C[N+](C)(C)C [ST1326, (R)-N-(tetradecylcarbamoyl)-aminocarnitine] |  |  | 
 |  |  | CPT1L-Ribo: plasmid (pTarget, CMV promoter) expressing a hammerhead ribozyme that specifically cleaves rat CPT1L mRNA, complexed to PEI for ICV injection (DNA CUGUACCAAAGAGCUGUAGAGUCCGUGAGGACGAAACGCCGCUCACAAUG) | not significantly altered | marked decrease | marked decrease
